Experimental findings from ChEMBL document CHEMBL4177537, “Identification of a new class of potent Cdc7 inhibitors designed by putative pharmacophore model: Synthesis and biological evaluation of 2,3-dihydrothieno[3,2-d]pyrimidin-4(1H)-ones” (Bioorg Med Chem, 2017) are described below.

By pIC50 is commonly meant the IC50 on a negative log10 scale, so that one unit is a factor of ten. As a reminder, the pEC50 is −log10 of the EC50, conventionally taken in molar units. A high value points to a low EC50.

Data set [1] deals with CDC7/DBF4 (Cell division cycle 7-related protein kinase/Activator of S phase kinase) (Homo sapiens, UniProt O00311). Kind of data set: Inhibition of recombinant human Cdc7 (1 to 574 residues)/human N-terminal GST-tagged DBF4 (1 to 674 residues) expressed in baculovirus expression system using His-tagged MCM2 as substrate preincubated for 10 mins followed by ATP addition by HTRF assay. (In general: Time-resolved FRET reads energy transfer from a long-lived donor to a nearby acceptor.)

Data set [2] deals with Rho-associated protein kinase 1 (Homo sapiens, UniProt Q13464). Kind of data set: Inhibition of recombinant human N-terminal GST-tagged ROCK1 (1 to 477 residues) expressed in baculovirus expression system using biotin-STK substrate-2 as substrate preincubated for 5 mins followed by ATP addition after 2 hrs by TR-FRET assay.
In data set [3] the target is Cyclin-dependent kinase 2/cyclin E1 (Homo sapiens, UniProt P24941). Kind of data set: Inhibition of recombinant human Cdk2 (1 to 298 residues)/human N-terminal GST-tagged cyclinE (1 to 410 residues) expressed in baculovirus expression system using histone H1 as substrate after 90 mins in presence of ATP by kinase-glo assay. For orientation: Kinase-Glo reads ATP consumption through a luciferase reaction.

The target in data set [4] is Cell division cycle 7-related protein kinase (Homo sapiens, UniProt O00311). Kind of data set: Inhibition of Cdc7 in human HeLa cells assessed as reduction in MCM2 phosphorylation at ser40 residues after 7 hrs by Western blot analysis. In kind it is cell-based.
The test system of the next data set is COLO 205. Kind of data set: Cytotoxicity against human COLO205 cells after 3 days by CellTiter-Glo luminescent cell viability assay. The data set is classed as functional, cell-based. To be noted: COLO 205, 72 h.
Data set [5] in a line: Solubility of the compound. In kind it is physicochemical.

pEC50, pIC50: −log10 of the molar value. Bounds are passed on as bounds.

Consider `CC1(CC(F)(F)F)NC(=O)c2sc(-c3ccncc3)cc2N1` (stereo not given), for which the pIC50 in data set [1] is 8.57; in data set [2] it was 7.51; in data set [3], 5.92.

In the case of `CCC1(C)NC(=O)c2sc(-c3ccncc3)cc2N1` (stereo not given), the figures for the negative-log IC50 (pIC50) in data set [1], in data set [2] and in data set [3] were 8.12, 7.44 and 5.70, respectively.

Turning to `Cc1n[nH]cc1-c1cc2c(s1)C(=O)N[C@]1(CC[C@@](O)(c3ccc(F)cc3)CC1)N2`, the pIC50 in data set [1] was 6.77; in data set [2] it was 6.89; in data set [3], under 5.00.

In the case of `Cc1c(-c2cn[nH]c2)sc2c1N(C)C(C)(C)NC2=O`, the values for the pIC50 in data set [1], in data set [2] and in data set [3] were 7.85, 7.36 and 7.59, respectively.

As to `CC1(C)Nc2cc(-c3ccncc3)sc2C(=O)N1Cc1ccccc1`, the figures for the negative-log IC50 (pIC50) in data set [1], in data set [2] and in data set [3] were under 5.00, 8.82 and 6.19, respectively.

Regarding `CN1c2c(sc(-c3cn[nH]c3)c2Br)C(=O)NC1(C)C`, the negative logarithm of the IC50 (pIC50) in data set [1] was 8.02; in data set [2], 7.66; in data set [3] it was 7.59.

On to `CN1C(=O)c2sc(-c3ccncc3)cc2NC1(C)C`, for which the negative-log IC50 (pIC50) is 6.35 in data set [1], 6.62 in data set [2] and under 5.00 in data set [3].

As to `CC1(C)NC(=O)c2cc(-c3ccncc3)sc2N1`, the pIC50 was 6.85 in data set [1] and 7.00 in data set [2].

For `O=C1NC2(CCCCC2)Nc2cc(-c3ccncc3)sc21`, the negative-log IC50 (pIC50) in data set [1] is 8.52; in data set [2], 7.28; in data set [3] it was 5.70.

For the molecule `CC(C)C1(C)NC(=O)c2sc(-c3ccncc3)cc2N1` (stereo not given), the negative logarithm of the IC50 (pIC50) in data set [1] was 8.09; in data set [2], 7.46; in data set [3], 5.85.

Consider `Cc1n[nH]cc1-c1cc2c(s1)C(=O)N[C@]1(CC[C@@](O)(C3CCCCC3)CC1)N2`, for which the values for the pIC50 in data set [1], in data set [2] and in data set [3] were 6.42, 6.46 and under 5.00, respectively.

On to `Cc1n[nH]cc1-c1cc2c(s1)C(=O)NC(C)(C)N2C`, for which the negative-log IC50 (pIC50) in data set [1] is 8.54; in data set [2] it was 7.27; in data set [3], 6.59.

Consider `Cc1n[nH]cc1-c1cc2c(s1)C(=O)N[C@]1(CC[C@](O)(C3CCCCC3)CC1)N2`, for which the negative logarithm of the IC50 (pIC50) in data set [4] is under 6.00; in data set [1], 8.70; in data set [2], 5.54; in data set [3] it was 5.66. Moreover, in the data set on COLO 205, the pEC50 was 5.21. For the same molecule, in data set [5], the solubility entry is reported as “Soluble”.

`CN1c2cc(-c3cn[nH]c3)sc2C(=O)NC1(C)C`: the pIC50 in data set [1] was 8.08; in data set [2] it was 6.89; in data set [3], 6.80.

For `CN1c2cc(-c3ccncc3)sc2C(=O)NC1(C)C`, the pIC50 in data set [1] is 8.00; in data set [2], 6.85; in data set [3], 5.68.

Consider `NC(=O)c1sc(-c2ccncc2)cc1N`, for which the pIC50 in data set [1] was 5.92.

As for `O=C1NC2(CCCC2)Nc2cc(-c3ccncc3)sc21`, the pIC50 was 8.09 in data set [1], 7.00 in data set [2] and 5.31 in data set [3].

With `O=c1[nH]c(=O)c2sc(-c3ccncc3)cc2[nH]1`, the negative-log IC50 (pIC50) in data set [1] was 6.16.

As to `Cc1n[nH]c(C)c1-c1cc2c(s1)C(=O)NC(C)(C)N2C`, the negative-log IC50 (pIC50) in data set [1] was 6.54; in data set [2], 5.68; in data set [3], 5.96.

For the molecule `Cc1n[nH]cc1-c1cc2c(s1)C(=O)N[C@]1(CC[C@](O)(c3ccc(F)cc3)CC1)N2`, the negative-log IC50 (pIC50) in data set [4] is under 6.00; in data set [1], 8.92; in data set [2] it was 6.09; in data set [3] it was 6.02. This molecule also showed a pEC50 in the data set with COLO 205 of 5.35. The solubility entry in data set [5] is “Soluble”.

For the molecule `Cc1n[nH]cc1-c1cc2c(s1)C(=O)NC(C)(CC(F)(F)F)N2C` (stereo not given), the pIC50 in data set [4] is 6.68; in data set [1], 9.00; in data set [2] it was 7.66; in data set [3], 6.38. The molecule further showed a pEC50 in the data set with COLO 205 of 6.48. The solubility entry in data set [5] was “Soluble”.

Consider `CCCC1(C)NC(=O)c2sc(-c3ccncc3)cc2N1` (stereo not given), for which the pIC50 was 8.20 in data set [1], 7.48 in data set [2] and 5.70 in data set [3].

For the molecule `CC1(C)NC(=O)c2sc(-c3ccncc3)cc2N1`, the negative-log IC50 (pIC50) in data set [1] is 7.59; in data set [2], 7.05; in data set [3] it was 5.49.

In the case of `Cc1n[nH]cc1-c1cc2c(s1)C(=O)NC1(CCCCC1)N2`, the negative-log IC50 (pIC50) in data set [4] is 6.54; in data set [1], 8.82; in data set [2], 7.32; in data set [3], 5.89. Also, in the data set on COLO 205, the pEC50 is 6.33. Further, in data set [5], the solubility result was “Soluble”.

For the molecule `O=C1NC2(CCCCCC2)Nc2cc(-c3ccncc3)sc21`, the pIC50 in data set [1] is 8.44; in data set [2], 7.43; in data set [3], 5.64.

For `CCc1n[nH]cc1-c1cc2c(s1)C(=O)NC(C)(C)N2C`, the negative logarithm of the IC50 (pIC50) in data set [1] is 7.89; in data set [2] it was 6.46; in data set [3], 6.44.
